Marks after values point to notes of the source that are not given here.
Key:
[1] = Prevention of iron-mediated oxidation of ascorbate (ascorbate-mediated reduction of Fe(III)); conditions: ascorbate 100 μM, FeCl3 30 μM, pH 7.4, ligand/Fe ratios 0-3, 40 min
Description: (§1) The iron chelators were tested for their ability to diminish the iron-mediated oxidation of ascorbate by the method of Dean and Nicholson (Free Radical Res. 20, 83-101 (1994)). Briefly, a solution of freshly prepared ascorbate (100 μM) in sodium phosphate buffer (5 mM, pH 7.4) was incubated in the presence of FeCl3 (30 μM) and chelator (ligand/Fe ratios varied from 0-3) for 40 min. The A265 was read at 10 and 40 min; the ΔA265 in the presence of ligand was compared to that in its absence.
The role of chelators in either inhibition or promotion of the Fenton reaction is related to their capacity to prevent Fe(III) from being reduced to Fe(II). Fe(II) is required for the reduction of H2O2 to HO. and HO^−. The assay involves spectrophotometrically monitoring the disappearance of ascorbate at pH 7.4 in the presence of FeCl3 and chelator at several ligand/Fe ratios. Under these conditions, ascorbate is oxidized to an L-ascorbyl radical anion. This anion then disproportionates to dehydroascorbic acid and ascorbate.
as §1, with “chelators nitrilotriacetic acid (NTA), 1,2-dimethyl-3-hydroxypyridin-4-one (L1), desferrioxamine B (DFO), (S)-4′-(HO)-DADMDFT, and (S,S)-1,11-Bis[5-(4-carboxyl-4,5-dihydro-1,3-thiazol-2-yl)-2,4-dihydroxyphenyl]-4,8-dioxaundecane (BDU)” for “chelators”, “Nicholson, Free” for “Nicholson (Free”, “20:” for “20,”, “(1994).” for “(1994)).”
The measurement examines the disappearance of ascorbate. It is known that DFO, a hydroxamate chelator that forms a 1:1 complex with Fe(III) at a formation constant of approximately 10^31 M^−1, prevents ascorbate-mediated reduction of Fe(III); it serves as a positive control in the present study. Both NTA and L1 promote ascorbate-mediated reduction of Fe(III) and serve as negative controls.

[2] = Quenching of the ABTS radical cation; conditions: for radical trapping compared with Trolox (in words): method of Example 6
Description: The iron chelators were tested for their ability to quench the radical cation formed from 2,2′-azinobis(3-ethylbenzothiazoline-6-sulfonic acid) (ABTS) by the method of Re et al. in Free Radic. Biol. Med. 26, 1231-1237 (1999). Briefly, a stock solution of ABTS radical cation was generated by mixing ABTS (10 mM, 2.10 mL) with K2S2O8 (8.17 mM, 0.90 mL) in H2O and […] deep blue-green ABTS radical cation was diluted in sufficient sodium phosphate (10 mM, pH 7.4) to give an A734 of about 0.900. Test compounds were added to a final concentration ranging from 1.25 to 15 μM, and the decrease in A734 was read after 1, 2, 4 and 6 min. The reaction was largely complete by 1 min, but the data presented are based on a 6-min reaction time.
In this assay, a fairly stable radical cation, ABTS^+, was examined, and Trolox, an analog of vitamin E, was used as a positive control. Briefly, the procedure involved generating the blue-green chromophore by the reaction of ABTS with K2S2O8. The radical has absorption maxima at λ=415, 645, 734, and 815 nm. The change in absorbance at 734 nm was noted 6 min after addition of the chelator of interest at various concentrations, and the slope of the ΔA734 vs. ligand concentration line was calculated.
The iron chelators were tested for their ability to quench the radical cation formed from 2,2′-azinobis(3-ethylbenzothiazoline-6-sulfonic acid) (ABTS) by a published method (Re, R., et al., Free Radical Biol. Med. 26:1231-1237 (1999). Briefly, a stock solution of ABTS radical cation was generated by mixing ABTS (10 mM, 2.10 mL) with K2S2O8 (8.17 mM, 0.90 mL) in H2O and allowing the solution to sit in the dark at room temperature for 18 hours. This stock solution of deep blue-green ABTS radical cation was diluted in sufficient sodium phosphate (10 mM, pH 7.4) to give an A734 of about 0.900. Test compounds were added to a final concentration ranging from 1.25 to 15 μM, and the decrease in A734 was read after 1, 2, 4 and 6 min. The reaction was largely complete by 1 min, but the data presented are based on a 6-min. reaction time.
This radical cation decolorization assay utilizes the pre-formed radical monocation of 2,2′-azinobis(3-ethylbenzothiazoline-6-sulfonic acid) (ABTS) and has been used to evaluate the antioxidant capacity of a large number of compounds and mixtures. Briefly, the change in absorbance of the blue-green chromophore was recorded after the addition of the chelator of interest at each of the different concentrations, and the slope of the ΔA734 vs. ligand concentration line was calculated. The positive control for this reaction was Trolox, an analogue of vitamin E. The decrease in A734 as a function of ligand concentration is the comparitor among the five compounds evaluated. Trolox, L1, DFO, (S)-4′-(HO)-DADMDFT and BDU (Table 3). All four of the iron chelators performed better than Trolox; DFO≈BDU>(S)-4′-(HO)-DADMDFT>L1>Trolox. Thus, all of these ligands could be expected to serve as excellent radical scavengers.

[3] = Quenching of the ABTS radical cation; conditions: Table 5; 6-min reaction, initial OD 1.000
[4] = tested on: acetic acid-induced colitis; assay: Acetic acid-induced colitis in rats, densitometric image analysis of colonic damage; type: in vivo; conditions: for Damage (%): 650 μmol kg^−1 intracolonically 30 min before 4% acetic acid, mean ± standard deviation; for protection against acetic acid-induced colonic damage (in words): intracolonic, image analysis and MPO assay
Description: (§2) The ligands were administered to the rats intracolonically as a suspension or solution in distilled water (2 mL) at a dose of 650 μmol kg^−1. The drug solutions were made fresh for each experiment. ROWASA®, the pharmaceutical preparation which contains 5-ASA (2 mL, 66.7 mg mL^−1) was given at a dose of 2318 μmol kg^−1. Control rats received distilled water (2 mL), administered intracolonically.
(§3) Animal care and experimental procedures were approved by the Institutional Animal Care and Use Committee. Colitis was induced by a modification of published methods. Briefly, the rats were anesthetized with sodium pentobarbital, 55 mg kg^−1 intraperitoneally. The abdomen was shaved and prepared for surgery. A midline incision was made, and the cecum and proximal colon were exteriorized. A reversible suture was placed at the junction of the cecum and proximal colon. The colon was rinsed with saline (10 mL), and the fluid and intestinal contents were gently expressed out the rectum. A gum-based rectal plug was inserted. The compound of interest, or distilled water in the control animals (2 mL), was injected intracolonically just distal to the ligature. The cecum and proximal colon were returned to the abdominal cavity; the compound was allowed to remain in the gut for 30 min. Then, the cecum and proximal colon were reexteriorized. The rectal plug was removed, and the drug was gently expressed out of the colon. Acetic acid (4%, 2 mL) was injected into the proximal colon over a 15-20-second time period. The acid was allowed to remain in the gut until one minute had passed (i.e., 40-45 seconds after the end of the acid administration). The no acid control rats received distilled water (2 mL), which was administered in the same manner as was the acetic acid. Air (10 mL) was then injected into the proximal colon to expel the acid or water. The cecal/proximal colon ligature was removed, the gut was returned to the abdominal cavity, and the incisions were closed. The animals were allowed to recover overnight and were sacrificed 24 hr later. The entire length of the colon was removed and assessed for damage both densitometrically and biochemically.
Gross damage was quantitated using Photoshop-based image analysis (version 5.0, Adobe Systems, Mountain View, Calif., USA) on an Apple iMac computer. The Magic Wand tool in the Select menu of Photoshop was used to place the cursor on an area of obvious damage. The tolerance level of the Magic Wand tool was set at 30. The damaged areas were automatically selected by using the Similar command in the Select menu. Then, the Eyedropper tool was used to determine the range of the damage in the highlighted areas. Individual colon images were copied to a blank Photoshop page. The Magic Wand tool, with a tolerance set to 100, was used to select all of the pixels in the colon sample. Then, the Histogram tool, which generates a graph in which each vertical line represents the number of pixels associated with a brightness level, was selected in the Image menu. The Red channel was then selected; the darker (damaged areas) appear on the left side of the histogram and the lighter (normal) areas are on the right side. The cursor was then placed on the histogram, the color range determined in an earlier step was selected, and the number of pixels encompassing that range and the percent damage were quantified automatically.
Two means were employed to assess the damage to the colon in the presence and absence of ligand, computer-based image analysis and colonic MPO measurement. The densitometric method removes much of the subjectivity involved in the simple scoring approaches. A digital image of the prepared colonic tissue is taken, and a clearly damaged segment is highlighted on the screen. Once the computer identifies all other segments of the intestine with the same or greater damage, a pixel number is generated; this number makes it possible to calculate the percentage of damaged intestine.

[5] = tested on: Myeloperoxidase (MPO) activity in colonic tissue; assay: Myeloperoxidase (MPO) assay in colonic tissue of rats with acetic acid-induced colitis; type: in vivo; conditions: 650 μmol kg^−1 intracolonically 30 min before 4% acetic acid, mean ± standard deviation
Description: as §2, §3
The activity of MPO was measured in colonic tissue by a modification of the method of Krawisz et al. in Gastroenterology 87, 1344-1350 (1984). Each excised colon was homogenized in 9 volumes of homogenization buffer (0.5% hexadecyltrimethylammonium bromide (HDTMA) in 50 mM sodium acetate, pH 6.0); this homogenate was centrifuged at 1200 g for 20 min at 4° C. A sample of the supernatant (1.8 mL) was transferred into a microcentrifuge tube and stored frozen at −20° C. for up to one week. Prior to assay, the thawed aliquot was centrifuged at about 10,000 g for 15 minutes at 4° C. The final supernatant (33 μL) was added to a solution of o-dianisidine HCl (0.17 mg mL^−1 in 50 mM sodium acetate, pH 6.0, made fresh daily and filtered immediately before use) (950 μL), the mixture was vortexed, and the peroxidase reaction was initiated by the addition of H2O2 to 50 mM sodium acetate, pH 6.0, made fresh daily (16.7 μL). The A470 at room temperature (ca. 23° C.) was read at 15-second intervals for 2 min. The rates were assessed graphically and are presented as change in milliabsorbance units (ΔmAU)/min per g tissue. Under these conditions, 0.1 “Unit” of purified human leukocyte myeloperoxidase (Sigma M-6908) produced a ΔA470 of about 400 mAU/min.
The biochemical measurement involves measuring the level of MPO in a sample of homogenate of the whole rat colon. When the colon is damaged by the acetic acid, there is an extravasation of neutrophils. The extent of this infiltration can serve as a quantitative marker for tissue damage. Although other leukocytes, such as eosinophils and monocytes, also contribute to the inflammatory response, their contribution is small; the majority of the cells recruited during the acute inflammatory response are neutrophils. […]

[6] = Table 1, A734, six-minute reaction, pH 7.4, 1.25 to 15 μM

SMILES	effect on ascorbate-mediated reduction of Fe(III) (in words) [1]	radical trapping compared with Trolox (in words) [2]	Slope × 10^3 OD units/μM (ABTS radical cation quenching) [3]	Damage (%) [4] [%]	protection against acetic acid-induced colonic damage (in words) [4]	Slope × 10^3 OD units/μM (ABTS radical cation quenching) [2, 6]	MPO activity [5]	Slope × 10^3 OD units/μM (ABTS radical cation quenching) ([2]; Table 3, A734, 6-min reaction, values marked b are the inventors' unpublished results)
COc1ccc(C2=NC(C)(C(=O)O)CS2)c(O)c1 (centres unmarked) [4′-(CH3O)-DADFT, 4′-methoxydesazadesferrithiocin]	slowed Fe(III) reduction considerably	as effective as Trolox	−36 × 10^3 OD units/μM					
COc1ccc(C2=N[C@@H](C(=O)O)CS2)c(O)c1 [4′-(CH3O)-DADMDFT, 4′-methoxydesazadesmethyldesferrithiocin]	slowed Fe(III) reduction considerably	as effective as Trolox	−33 × 10^3 OD units/μM					
CN(O)C(=O)[C@@]1(C)CSC(c2ccc(O)cc2O)=N1 [4′-(HO)-DADFT-NMH]				46 ± 23	moderately effective	−141.4 × 10^3 OD units/μM	41021 ± 35525 mAU min^−1g of colonic tissue^−1	
CN(O)C(=O)[C@H]1CSC(c2ccc(O)cc2O)=N1 [4′-(HO)-DADMDFT-NMH]				39 ± 11		−135.5 × 10^3 OD units/μM	18426 ± 20930 mAU min^−1g of colonic tissue^−1	
O=C(O)C1CSC(c2ncccc2O)=N1 (centres unmarked) [DMDFT, desmethyldesferrithiocin]				61 ± 15		−1.3 × 10^3 OD units/μM	39229 ± 27109 mAU min^−1g of colonic tissue^−1	
CN(O)C(=O)C1CSC(c2ncccc2O)=N1 (centres unmarked) [DMDFT-NMH, desmethyldesferrithiocin-N-methyl-hydroxamate]				22 ± 17	most effective	−47.4 × 10^3 OD units/μM	14406 ± 8683 mAU min^−1g of colonic tissue^−1	
Cc1ccc(O)c(C2=NC(C(=O)O)CC2)c1 (centres unmarked) [PCA, 3,4-dihydro-5-(2-hydroxy-5-methylphenyl)-2H-pyrrole-2-carboxylic acid]				44 ± 11		−3.3 × 10^3 OD units/μM	29942 ± 11255 mAU min^−1g of colonic tissue^−1	
Cc1c(C)c2c(c(C)c1O)CCC(C)(C(=O)O)O2 (centres unmarked) [Trolox, reference compound]			−37 × 10^3 OD units/μM			−36.6 × 10^3 OD units/μM		−37^b × 10^3 OD units/μM
